Measurements as given in US4800194A, “Acylphosphorotriamides useful as lipid-altering agents” (priority 1986, dated 1989).

Columns and labels:
acetylcholinesterase = molecular target: T1, acetylcholinesterase (Homo sapiens, UniProt P22303); assay: Inhibition of acetylcholinesterase (AChE) activity of lysed human red blood cells (Test Method 1); format: biochemical; settings: 60 min preincubation
T1 construct: The supernatant (lysed RBC's) was stored frozen; from tissue; host or cells: lysed human red blood cells (supernatant of hypotonic lysis)
T1 sequence (P22303 other isoform, or with tags, fused parts or gaps): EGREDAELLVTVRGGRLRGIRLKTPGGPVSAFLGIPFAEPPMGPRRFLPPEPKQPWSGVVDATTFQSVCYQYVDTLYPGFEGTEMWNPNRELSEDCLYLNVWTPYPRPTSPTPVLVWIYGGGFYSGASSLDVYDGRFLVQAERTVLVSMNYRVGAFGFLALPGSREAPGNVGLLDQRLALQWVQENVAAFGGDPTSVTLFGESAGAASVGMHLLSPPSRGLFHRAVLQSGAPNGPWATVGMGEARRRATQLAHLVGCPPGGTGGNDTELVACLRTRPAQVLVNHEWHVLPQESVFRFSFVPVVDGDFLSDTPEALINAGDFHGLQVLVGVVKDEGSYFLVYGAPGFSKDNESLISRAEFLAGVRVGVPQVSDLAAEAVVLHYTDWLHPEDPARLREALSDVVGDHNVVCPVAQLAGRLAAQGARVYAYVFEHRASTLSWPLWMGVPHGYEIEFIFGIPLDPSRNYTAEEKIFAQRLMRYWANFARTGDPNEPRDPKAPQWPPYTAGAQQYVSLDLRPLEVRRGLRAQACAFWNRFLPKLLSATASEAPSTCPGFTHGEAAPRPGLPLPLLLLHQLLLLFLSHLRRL
Experimental: The following method was used to determine the relative inhibition of pseudocholinesterase and acetylcholinesterase by compounds of the present invention.
Lysed Red Blood Cells (RBC's) (Source of Acetylcholinesterase Enzyme)
Human blood which was collected in EDTA treated tubes was centrifuged at 1500×g for 10 min. at 4° C. One volume of chilled 0.9% saline solution was gently mixed with one volume of packed RBC's. One volume of this suspension was then washed three times with ten volumes of chilled 0.9% saline solution (4° C.). Each wash was centrifuged at 1500×g for 10 min. at 4° C. and supernatant was discarded. After the last wash the supernatant was replaced with deionized, distilled water (treated by Milli-Q apparatus, Millipore Corp., Bedford, MA) (4° C.). After 15 min. at 4° C. the suspension was centrifuged at 1500×g for 10 min. at 4° C. The supernatant (lysed RBC's) was stored frozen at -20° C. until use.
The buffer/chromogen solution was 0.25 mM 5,5'-dithiobis-[2-nitrobenzoic acid] (chromogen), 50 mM phosphate buffer, pH 7.2. In making up the buffer/chromogen solution and to keep it as colorless as possible, the phosphate buffer was first adjusted to pH 7.1 with NaOH; the chromogen was then added and dissolved; the pH was adjusted to 7.2; and the final volume was adjusted with addition of Milli-Q water. 5,5'-dithiobis-(2-nitrobenzoic acid) was obtained from Sigma Chemicals, St. Louis, MO.
The substrate solution for the pseudocholinesterase assay was 156 mM S-butyrylthiocholine iodide, and the substrate solution for the acetylcholinesterase assay was 156 mM S-acetylthiocholine iodide. Both substrate compounds were obtained from Sigma Chemicals.
Test Compound Stock Solutions
Solutions of all test compounds were made up at 2 μM, 20 μM, and 200 μM concentrations (in 0.9% saline solution) except as noted where lower concentrations were necessary because of decreased solubility of the compound in saline solution.
Acetylcholinesterase (AChE) Assay
The acetylcholinesterase assay was performed identically to the pseudocholinesterase assay with the following exceptions. The concentrations of the stock solutions of test compounds were 20 μM and 200 μM, instead of 2 μM and 20 μM, and the substrate solution was 156 mM S-acetylthiocholine iodide instead of S-butyrylthiocholine iodide. The lysed RBC's/test compound solution was incubated for 0 and 60 minutes instead of 0 and 30 minutes before being added to the cuvette containing the buffer/chromogen/substrate solution. From a plot of net absorbance versus time there was an initial period before the curve reached a steady linear rate. From this linear portion of the curve a rate of absorbance change per minute was calculated.
Each compound was tested for its ability to inhibit plasma pseudocholinesterase activity and acetylcholinesterase activity. Because of variation in the time points in the linear portion of the curve, inhibition values below 10-15% and higher than 85-90% are nearly indistinguishable from 0% and 100%, respectively.

pseudocholinesterase = assay: Multiple dose study in hyperlipidemic guinea pigs: plasma pseudocholinesterase activity (Test Method 2, Example 29); format: in vivo, guinea pig; settings: 2.5 mg/kg i.p. once daily
Excerpt: Male Hartley guinea pigs (Elm Hill Breeding Labs., Chelmsford, MA or Charles River, Wilmington, MA) was used in all experiments unless otherwise specified. The animals were maintained on a normal diet of rabbit pellets (Purina Rabbit Chow 5321, Ralston Purina, St. Louis, MO) and water containing 0.1% ascorbic acid ad libitum. For special studies in the hyperlipidemic guinea pig model, the animals were maintained on the high cholesterol diet described in this report and water containing 0.1% ascorbic acid ad libitum.
Individual animals were identified by ear and cage markings. The dose of drug or placebo was adjusted daily for changes in the weight of the guinea pigs. Blood samples were collected in EDTA Vacutainers by open chest cardiac puncture under carbon dioxide anesthesia from guinea pigs which had been fasted overnight. The animals were then sacrificed by CO2 inhalation. Blood samples were centrifuged at 2000 rpm for 15 min. in an IEC centrifuge (International Equipment Co., Boston, MA) with a 240 rotor for isolation of plasma. Lipoprotein analyses of plasma were carried out on the same day as the blood collection. Assays of pseudocholinesterase activity were carried out within a week of blood collection on plasma samples which had been stored at 4° C.
The assay method used was based on the procedure described in Ellman, G. L., K. D. Courtney, V. Andres & R. M. Featherstone, "A New and Rapid Colorimetric Determination of Acetylcholinesterase Activity", Biolchemical Pharmacology, Vol. 7 (1961), pp. 88-95. Reactions were carried out at 35° C. in pH 7.2 NaH2 PO4 50 mM buffer containing 5 mM butyrylthiocholine iodide (substrate) and 0.25 mM 5,5'-dithiobis-[2-nitrobenzoic acid] (chromogen). The rate of change of absorbance at 405 nm with time was monitored by means of a Cary 16 spectrophotometer (Varian Associates, Walnut Creek, CA) or a Beckman DU-8B spectrophotometer (Beckman Instruments, Inc., Palo Alto, CA). Corrections were made for non-enzymic hydrolysis of substrate.
Enzyme Buffer: 6.90 g (50 mmol) NaH2 PO4.H2 O+[…] (0.25 mmol) 5,5'-dithiobis-(2-nitrobenzoic acid). The reagents were dissolved in Milli-Q purified distilled water, titrated to pH 7.2 with 1N NaOH, and diluted to one liter with water.
Substrate: 0.2476 g (0.780 mmol) S-butyrylthiocholine iodide (BTC). The substrate was dissolved in 5 ml of Milli-Q purified distilled water. [BTC]=156 mM.
Into a 1-cm pathlength cuvette was placed 3.0 ml of enzyme buffer. At least 10 min. was allowed for temperature equilibration. A 100 μl aliquot of substrate was added to the cuvette, the solution was mixed and about 3 min. was allowed for determination of the non-enzymic rate of substrate hydrolysis before the enzymic reaction was initiated by addition of 25 μl of plasma. The increase in absorbance at 405 nm was measured vs. a blank containing enzyme buffer.
Into a 1-cm pathlength cuvette was placed 3.0 ml of enzyme buffer and 100 μl of substrate. The solution was mixed and about 10 min. was allowed for temperature equilibration. The reaction was initiated by addition of 25 μl of plasma. The increase in absorbance at 405 nm was measured vs. a blank containing enzyme buffer and substrate. No additional correction for non-enzymic substrate hydrolysis was necessary.
A 1:15 mixture of cholesterol:corn oil was prepared by adding 25 g of USP cholesterol (Sigma Chemical Company, St. Louis, MO) to 375 g of corn oil (Mazola, Best Foods, CPC International, Inc., Englewood Cliffs, NJ). The mixture was stirred, sonicated, and heated in a hot water bath until the cholesterol completely dissolved. It was necessary to keep the mixture warm (50°-60° C.) in order to prevent congealing.
Batches of feed were prepared by adding 160 g of the cholesterol-corn oil solution to 840 g of Purina Rabbit Chow 5321. The pellets and lipid mixture were thoroughly mixed in a 2-liter or 3-liter Erlenmeyer flask to ensure uniform coating of the pellets. The feed was then stored at room temperature until needed. […]

NP(N)(=O)NC(=O)c1ccc(F)cc1 [Test Compound 4, N-(diaminophosphinyl)-4-fluorobenzamide]
inhibition at 10 µM (acetylcholinesterase; 10 μM): 12.4% | inhibition at 100 µM (acetylcholinesterase; 100 μM): 52.3% | % PChE Inhibition (Compared to Control) (pseudocholinesterase; day 1): 51.6% | % PChE Inhibition (Compared to Control) (pseudocholinesterase; day 3): 45.0% | % PChE Inhibition (Compared to Control) (pseudocholinesterase; day 7): 58.6% | % PChE Inhibition (Compared to Control) (pseudocholinesterase; day 10): 65.0% | % PChE Inhibition (Compared to Control) (pseudocholinesterase; day 14): 69.0% | plasma pseudocholinesterase activity vs saline-treated control (pseudocholinesterase; high cholesterol diet, result in words): substantially lower plasma pseudocholinesterase activity
